Measurements reported in patent US8937077B2, “Bicyclic diamines as janus kinase inhibitors” (Merck Sharp & Dohme Corp., priority 2010, dated 2015).

Target: T1, Jak1 (Homo sapiens, UniProt P23458)
T1 construct: using a recombinant purified GST-tagged catalytic domain for each enzyme; GST; purchased Invitrogen M4290
Assay: Jak Biochemical HTRF Assay (Jak1)
Conditions: IC50 class, recombinant GST-tagged catalytic domain, read-out: Jak1 activity
How it was run: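 Recombinant GST-tagged Jak1 catalytic domain was preincubated with compound and peptide substrate for 30 min at room temperature, and the reaction was then started with ATP and run 120 min. Buffer contained 2 mM DTT and 0.05% BSA. Read-out was HTRF (665/615 nm) with Eu-pY20 antibody and streptavidin-Dylight, and IC50 values came from 4-parameter fits of percent inhibition.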

T1 sequence (P23458 875-1153 limits assumed): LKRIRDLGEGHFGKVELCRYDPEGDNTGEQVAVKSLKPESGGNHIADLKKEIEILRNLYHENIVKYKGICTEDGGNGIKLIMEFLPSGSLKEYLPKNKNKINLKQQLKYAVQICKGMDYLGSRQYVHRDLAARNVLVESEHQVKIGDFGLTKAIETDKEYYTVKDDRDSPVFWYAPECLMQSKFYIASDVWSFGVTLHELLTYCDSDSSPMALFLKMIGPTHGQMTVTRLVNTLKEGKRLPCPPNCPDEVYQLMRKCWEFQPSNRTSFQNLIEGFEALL

Row | IC50 [nM] | Compound
1 | 10 to 100 | CC1CCN(Cc2ccccc2)C2CCN(c3ncnc4[nH]ccc34)C12 [Example 21, (3aS,7S,7aS and 3aR,7R,7aR) 4-(4-benzyl-7-methyloctahydro-1H-pyrrolo[3,2-b]pyridin-1-yl)-7H-pyrrolo[2,3-d]pyrimidine]
2 | 100 to 1000 | CC1CCN(C(=O)CC#N)C2CCN(c3ncnc4[nH]ccc34)C12 [Example 22, (3aS,7S,7aS and 3aR,7R,7aR) 3-[7-methyl-1-(7H-pyrrolo[2,3-d]pyrimidin-4-yl)octahydro-4H-pyrrolo[3,2-b]pyridin-4-yl]-3-oxopropanenitrile]
3 | 10 to 100 | COC(=O)c1ccc(CNC(=O)N2CCC[C@@H]3[C@H]2CCN3c2ncnc3[nH]ccc23)cc1 [Example 23, methyl 4-[({[(3aR,7aR)-1-(7H-pyrrolo[2,3-d]pyrimidin-4-yl)octahydro-4H-pyrrolo[3,2-b]-pyridine-4-yl]carbonyl}amino)methyl]benzoate]
4 | 1 to 10 | COC(=O)c1ccc(CN(C)C(=O)N2CCC[C@@H]3[C@H]2CCN3c2ncnc3[nH]ccc23)cc1 [Example 24, methyl 4-[(methyl{[(3aR,7aR)-1-(7H-pyrrolo[2,3-d]pyrimidin-4-yl)octahydro-4H-pyrrolo[3,2-b]-pyridin-4-yl]carbonyl}amino)methyl]benzoate]
5 | 100 to 1000 | O=C(O)c1ccc(CNC(=O)N2CCC[C@@H]3[C@H]2CCN3c2ncnc3[nH]ccc23)cc1 [Example 25, 4-[({[(3aR,7aR)-1-(7H-pyrrolo[2,3-d]pyrimidin-4-yl)octahydro-4H-pyrrolo[3,2-b]pyridin-4-yl]carbonyl}amino)methyl]benzoic acid]
6 | 10 to 100 | COC(=O)c1ccc(CCC(=O)N2CCC[C@@H]3[C@H]2CCN3c2ncnc3[nH]ccc23)cc1 [Example 26, methyl 4-{3-oxo-3-[(3aR,7aR)-1-(7H-pyrrolo[2,3-d]pyrimidin-4-yl)octahydro-4H-pyrrolo[3,2-b]pyridine-4-yl]propyl}benzoate]
7 | 10 to 100 | O=C(O)c1ccc(CCC(=O)N2CCC[C@@H]3[C@H]2CCN3c2ncnc3[nH]ccc23)cc1 [Example 27, 4-{3-oxo-3-[(3aR,7aR)-1-(7H-pyrrolo[2,3-d]pyrimidin-4-yl)octahydro-4H-pyrrolo[3,2-b]pyridin-4-yl]propyl}benzoic acid]
8 | 100 to 1000 | O=C(O)c1ccc(CCOC(=O)N2CCC[C@@H]3[C@H]2CCN3c2ncnc3[nH]ccc23)cc1 [Example 28, 4-[2-({[(3aR,7aR)-1-(7H-pyrrolo[2,3-d]pyrimidin-4-yl)octahydro-4H-pyrrolo[3,2-b]pyridin-4-yl]carbonyl}oxy)ethyl]benzoic acid]
9 | 100 to 1000 | O=C(c1ccc(N2CCOCC2)cc1)N1CCCC2C1CCN2c1ncnc2[nH]ccc12 [Example 29-1, (3aS,7aS and 3aR,7aR) 4-{4-[(4-morpholin-4-ylphenyl)carbonyl]octahydro-1H-pyrrolo[3,2-b]pyridin-1-yl}-7H-pyrrolo[2,3-d]pyrimidine]
10 | 10 to 100 | COc1ccc(CC(=O)N2CCCC3C2CCN3c2ncnc3[nH]ccc23)cc1 (stereo not shown) [Example 29-4, 4-{4-[(4-methoxyphenyl)acetyl]octahydro-1H-pyrrolo[3,2-b]pyridin-1-yl}-7H-pyrrolo[2,3-d]pyrimidine]
11 | 10 to 100 | O=C(Cc1ccc(C(F)(F)F)cc1)N1CCCC2C1CCN2c1ncnc2[nH]ccc12 (stereo not shown) [Example 29-5, 4-(4-{[4-(trifluoromethyl)phenyl]acetyl}octahydro-1H-pyrrolo[3,2-b]pyridin-1-yl)-7H-pyrrolo[2,3-d]pyrimidine]
12 | 100 to 1000 | CN1CCN(c2ccc(C(=O)N3CCCC4C3CCN4c3ncnc4[nH]ccc34)cc2)CC1 (stereo not shown) [Example 29-6, 4-(4-{[4-(4-methylpiperazin-1-yl)phenyl]carbonyl}octahydro-1H-pyrrolo[3,2-b]pyridin-1-yl)-7H-pyrrolo[2,3-d]pyrimidine]
13 | 10 to 100 | O=C(c1ccco1)N1CCC[C@@H]2[C@H]1CCN2c1ncnc2[nH]ccc12 [Example 29-9, 4-[(3 aR,7aR)-4-(furan-2-ylcarbonyl)octahydro-1H-pyrrolo[3,2-b]pyridin-1-yl]-7H-pyrrolo[2,3-d]pyrimidine]
14 | 10 to 100 | O=C(c1cccnc1)N1CCC[C@@H]2[C@H]1CCN2c1ncnc2[nH]ccc12 [Example 29-10, 4-[(3aR,7aR)-4-(pyridin-3-ylcarbonyl)octahydro-1H-pyrrolo[3,2-b]pyridin-1-yl]-7H-pyrrolo[2,3-d]pyrimidine]
15 | 100 to 1000 | O=C(c1ccccn1)N1CCC[C@@H]2[C@H]1CCN2c1ncnc2[nH]ccc12 [Example 29-11, 4-[(3aR,7aR)-4-(pyridin-2-ylcarbonyl)octahydro-1H-pyrrolo[3,2-b]pyridin-1-yl]-7H-pyrrolo[2,3-d]pyrimidine]
16 | 10 to 100 | O=C(c1ccncc1)N1CCC[C@@H]2[C@H]1CCN2c1ncnc2[nH]ccc12 [Example 29-12, 4-[(3aR,7aR)-4-(pyridin-4-ylcarbonyl)octahydro-1H-pyrrolo[3,2-b]pyridin-1-yl]-7H-pyrrolo[2,3-d]pyrimidine]
17 | 10 to 100 | O=C(c1cnccn1)N1CCC[C@@H]2[C@H]1CCN2c1ncnc2[nH]ccc12 [Example 29-13, 4-[(3aR,7aR)-4-(pyrazin-2-ylcarbonyl)octahydro-1H-pyrrolo[3,2-b]pyridin-1-yl]-7H-pyrrolo[2,3-d]pyrimidine]
18 | 100 to 1000 | Cc1cc(C(=O)N2CCC[C@@H]3[C@H]2CCN3c2ncnc3[nH]ccc23)no1 [Example 29-14, 4-{(3aR,7aR)-4[(5-methylisoxazol-3-yl)carbonyl]octahydro-1H-pyrrolo[3,2-b]pyridin-1-yl}-7H-pyrrolo[2,3-d]pyrimidine]
19 | 10 to 100 | O=C(C1CCCCC1)N1CCC[C@@H]2[C@H]1CCN2c1ncnc2[nH]ccc12 [Example 29-15, 4-[(3aR,7aR)-4-(cyclohexylcarbonyl)octahydro-1H-pyrrolo[3,2-b]pyridin-1-yl]-7H-pyrrolo[2,3-d]pyrimidine]
20 | 100 to 1000 | O=C1CCCN1CC(=O)N1CCC[C@@H]2[C@H]1CCN2c1ncnc2[nH]ccc12 [Example 29-16, 1-{2-oxo-2-[(3aR,7aR)-1-(7H-pyrrolo[2,3-d]pyrimidin-4-yl)octahydro-4H-pyrrolo[3,2-b]pyridin-4-yl]ethyl}pyrrolidin-2-one]
21 | 10 to 100 | O=C(c1ccccc1Cl)N1CCC[C@@H]2[C@H]1CCN2c1ncnc2[nH]ccc12 [Example 29-17, 4-{(3aR,7aR)-4-[(2-chlorophenyl)carbonyl]octahydro-1H-pyrrolo[3,2-b]pyridin-1-yl}-7H-pyrrolo[2,3-d]pyrimidine]
22 | 10 to 100 | O=C(c1cccc(Cl)c1)N1CCC[C@@H]2[C@H]1CCN2c1ncnc2[nH]ccc12 [Example 29-18, 4-{(3aR,7aR)-4-[(3-chlorophenyl)carbonyl]octahydro-1H-pyrrolo[3,2-b]pyridin-1-yl}-7H-pyrrolo[2,3-d]pyrimidine]
23 | 10 to 100 | O=C(c1cccc2ccccc12)N1CCC[C@@H]2[C@H]1CCN2c1ncnc2[nH]ccc12 [Example 29-20, 4-[(3aR,7aR)-4-(naphthalen-1-ylcarbonyl)octahydro-1H-pyrrolo[3,2-b]pyridin-1-yl]-7H-pyrrolo[2,3-d]pyrimidine]
24 | 10 to 100 | Cn1c(C(=O)N2CCC[C@@H]3[C@H]2CCN3c2ncnc3[nH]ccc23)cc2ccccc21 [Example 29-21, 4-{(3aR,7aR)-4-[(1-methyl-1H-indol-2-yl)carbonyl]octahydro-1H-pyrrolo[3,2-b]pyridin-1-yl}-7H-pyrrolo[2,3-d]pyrimidine]
25 | 100 to 1000 | O=C(c1cccc(N2CCOCC2)c1)N1CCC[C@@H]2[C@H]1CCN2c1ncnc2[nH]ccc12 [Example 29-22, 4-{(3aR,7aR)-4-[(3-morpholin-4-ylphenyl)carbonyl]octahydro-1H-pyrrolo[3,2-b]pyridin-1-yl}-7H-pyrrolo[2,3-d]pyrimidine]
26 | 100 to 1000 | O=C(c1ccccc1-c1ccccc1)N1CCC[C@@H]2[C@H]1CCN2c1ncnc2[nH]ccc12 [Example 29-23, 4-[(3aR,7aR)-4-(biphenyl-2-ylcarbonyl)octahydro-1H-pyrrolo[3,2-b]pyridin-1-yl]-7H-pyrrolo[2,3-d]pyrimidine]
27 | 100 to 1000 | O=C(C(c1ccccc1)c1ccccc1)N1CCC[C@@H]2[C@H]1CCN2c1ncnc2[nH]ccc12 [Example 29-24, 4-[(3aR,7aR)-4-(diphenylacetyl)octahydro-1H-pyrrolo[3,2-b]pyridin-1-yl]-7H-pyrrolo[2,3-d]pyrimidine]
28 | 100 to 1000 | O=C(c1cn2ccccc2n1)N1CCC[C@@H]2[C@H]1CCN2c1ncnc2[nH]ccc12 [Example 29-25, 4-[(3aR,7aR)-4-(imidazo[1,2-a]pyridin-2-ylcarbonyl)octahydro-1H-pyrrolo[3,2-b]pyridin-1-yl]-7H-pyrrolo[2,3-d]pyrimidine]
29 | 10 to 100 | O=C(c1ccc2ccccc2c1)N1CCC[C@@H]2[C@H]1CCN2c1ncnc2[nH]ccc12 [Example 29-26, 4-[(3aR,7aR)-4-(naphthalen-2-ylcarbonyl)octahydro-1H-pyrrolo[3,2-b]pyridin-1-yl]-7H-pyrrolo[2,3-d]pyrimidine]
30 | 10 to 100 | O=C(c1cn2cccnc2n1)N1CCC[C@@H]2[C@H]1CCN2c1ncnc2[nH]ccc12 [Example 29-27, 4-[(3aR,7aR)-4-(imidazo[1,2-a]pyrimidin-2-ylcarbonyl)octahydro-1H-pyrrolo[3,2-b]pyridin-1-yl]-7H-pyrrolo[2,3-d]pyrimidine]

Same assay, conditions: Jak1 activity, IC50 class, recombinant GST-tagged catalytic domain

Row | Compound | IC50 [nM]
31 | CC1CCN(C(=O)OCc2ccccc2)C2CCN(c3ncnc4[nH]ccc34)C12 [Example 20, (3aS,7S,7aS and 3aR,7R,7aR) benzyl 7-methyl-1-(7H-pyrrolo[2,3-d]pyrimidin-4-yl)octahydro-4H-pyrrolo[3,2-b]pyridine-4-carboxylate] | 10 to 100
32 | O=C(c1cc2ccccc2[nH]1)N1CCC[C@@H]2[C@H]1CCN2c1ncnc2[nH]ccc12 [Example 29-19, 4-[(3aR,7aR)-4-(1H-indol-2-ylcarbonyl)octahydro-1H-pyrrolo[3,2-b]pyridin-1-yl]-7H-pyrrolo[2,3-d]pyrimidine] | 100 to 1000

Same assay, conditions: Representative IC50 values, recombinant GST-tagged catalytic domain, 31.8 μM ATP

Row | Compound | IC50 [nM]
33 | CC1CCN(C(=O)OCc2ccccc2)C2CCN(c3ncnc4[nH]ccc34)C12 [Example 20, (3aS,7S,7aS and 3aR,7R,7aR) benzyl 7-methyl-1-(7H-pyrrolo[2,3-d]pyrimidin-4-yl)octahydro-4H-pyrrolo[3,2-b]pyridine-4-carboxylate] | 12

Same assay, conditions: recombinant GST-tagged catalytic domain, 31.8 μM ATP, read-out: Representative IC50 values

Row | IC50 [nM] | Compound
34 | 39 | COC(=O)c1ccc(CNC(=O)N2CCC[C@@H]3[C@H]2CCN3c2ncnc3[nH]ccc23)cc1 [Example 23, methyl 4-[({[(3aR,7aR)-1-(7H-pyrrolo[2,3-d]pyrimidin-4-yl)octahydro-4H-pyrrolo[3,2-b]-pyridine-4-yl]carbonyl}amino)methyl]benzoate]
